Source: PubChem BioAssay (NCI)
Several values for one entry are separate records, joined by “and”; a condition that tells them apart may be missing. Equal values may be shown once.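 Following 48 hours of exposure in 96-well plates, responses at five concentrations were used to interpolate endpoints linearly. GI50 = concentration required for 50% inhibition of growth. TGI is the concentration that stops growth completely.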

Tests used:
Test in all cases: inhibition of tumour cell growth, NCI panel, 48 h
[1] = test system: ACHN renal
[2] = test system: CCRF-CEM leukemia
[3] = test system: HL-60(TB) leukemia
[4] = test system: LOX IMVI melanoma
[5] = test system: NCI/ADR-RES ovarian
[6] = test system: OVCAR-3 ovarian
[7] = test system: PC-3 prostate
[8] = test system: SF-539 CNS
[9] = test system: SW-620 colon
[10] = test system: UACC-62 melanoma
[11] = test system: MALME-3M melanoma

SMILES | TGI [1] | TGI [2] | TGI [3] | TGI [4] | TGI [5] | TGI [6] | TGI [7] | TGI [8] | TGI [9] | TGI [10] | TGI [11] | GI50 [1] | GI50 [2] | GI50 [8] | GI50 [11] | GI50 [3] | GI50 [4] | GI50 [5] | GI50 [6] | GI50 [10]
FC(F)(F)C(C1=NC(C(F)(F)F)(C(F)(F)F)N=C(N2CCOCC2)O1)C(F)(F)F | 49.3 µM | 25.3 µM | 22 µM | 63.8 µM | 49.4 µM | > 100 µM | 63.2 µM | 97.3 µM | 41.9 µM | 33.5 µM | – | – | – | – | – | – | – | – | – | –
C=CCOC1OC(CS(=O)(=O)O)C(O)C(O)C1O (stereo not drawn) | – | – | > 100 µM | > 100 µM | > 100 µM | > 100 µM | > 100 µM | – | > 100 µM | > 100 µM | > 100 µM | – | – | – | – | – | – | – | – | –
COc1ccc2oc(=O)cc(C)c2c1 | > 100 µM | > 100 µM | > 100 µM | > 100 µM | > 100 µM | > 100 µM | > 100 µM | > 100 µM | > 100 µM | > 100 µM | > 100 µM | – | – | – | – | – | – | – | – | –
C=CC(=O)N1CCN(c2nc(OC[C@@H]3CCCN3C)nc3c2CCN(c2cccc4cccc(C)c24)C3)C[C@@H]1CC#N | 2.14 µM | 2.78 µM | – | – | – | – | – | 3.04 µM | – | – | – | 0.953 µM | 0.475 µM | 1.63 µM | – | – | – | – | – | –
Cc1ccc2cc3c(ccc4ccccc43)c3c2c1CC3 | > 100 µM | > 100 µM | > 100 µM | > 100 µM | > 100 µM | > 100 µM | > 100 µM | > 100 µM | > 100 µM | > 100 µM | > 100 µM | – | – | – | > 100 µM | – | – | – | – | –
CCCCCCCCCCCCCCCC[N+](C)(C)CCN(Cc1ccc(OC)cc1)c1ncccn1 | 32.9 µM | – | 3.99 µM and 4.79 µM | 3.33 µM | 64 µM and > 100 µM | 3.32 µM | – | – | – | 4.37 µM | – | 8.54 µM | – | – | – | 1.4 µM and 0.661 µM | 1.17 µM | 18.7 µM and 3.94 µM | 1.14 µM | 1.75 µM
O=C(O)CSCC(=O)O | > 100 µM | > 100 µM | > 100 µM | > 100 µM | > 100 µM | > 100 µM | > 100 µM | – | > 100 µM | > 100 µM | > 100 µM | – | – | – | – | – | – | – | – | –
CS/C(=N\C(=S)Nc1ccccc1)Nc1ccccc1 | 70.7 µM | – | 39.2 µM | 38.2 µM | – | 48 µM | – | – | > 100 µM | 53.6 µM | 60.4 µM | – | – | – | – | – | – | – | – | –
Cc1nc(Nc2ccc(F)cc2)c2sc(=S)n(-c3ccc(F)cc3)c2n1 | 27 µM | – | 74.1 µM | 17 µM | 37.3 µM | 30.9 µM | 35.6 µM | – | 21.4 µM | 29.6 µM | 28.8 µM | – | – | – | – | – | – | – | – | –
COc1cc2nc(-c3cccs3)nc(N3C(c4ccc(O)cc4)=NNC(=O)c4ccccc43)c2cc1OC | 55 µM | > 100 µM | – | 54.6 µM | 44.3 µM | – | 67.9 µM | 23.6 µM | 79.8 µM | 43 µM | 43.9 µM | – | – | – | – | – | – | – | – | –
Nc1ccc2nc3ccc(N)cc3[n+](-c3ccccc3)c2c1 | > 100 µM | > 100 µM | > 100 µM | 75.9 µM | > 100 µM | > 100 µM | > 100 µM | > 100 µM | > 100 µM | > 100 µM | 74.7 µM | – | – | – | – | – | – | – | – | –
COc1cc(-c2c(C#N)c(N)c(C#N)c3c2COc2ccccc2-3)cc(OC)c1OC | > 100 µM | > 100 µM | > 100 µM | > 100 µM | > 100 µM | > 83.8 µM | > 100 µM | 19.9 µM | > 100 µM | > 100 µM | 48.8 µM | – | – | – | – | – | – | – | – | –
COc1ccc(C2C(=O)C(Cl)N2Nc2nc(C)cc(=O)[nH]2)cc1OC (stereo not drawn) | > 100 µM | 55.1 µM | 37.6 µM | > 100 µM | – | 84.8 µM | – | 85.5 µM | > 100 µM | > 100 µM | – | – | – | – | – | – | – | – | – | –
CC(=O)Oc1ccc2c(C)cc(=O)oc2c1 | > 100 µM | > 100 µM | > 100 µM | > 100 µM | > 100 µM | > 100 µM | > 100 µM | > 100 µM | > 100 µM | > 100 µM | > 100 µM | – | – | – | – | – | – | – | – | –
Nc1ccc(C2NC(=O)Cc3c2ccc2ccccc32)cc1 (stereo not drawn) | > 100 µM | > 100 µM | > 100 µM | > 100 µM | – | > 100 µM | > 100 µM | > 100 µM | > 100 µM | > 100 µM | > 100 µM | – | – | – | – | – | – | – | – | –
NC(=O)NO | 2060 µM | 1060 µM | 182 µM | > 2430 µM | 2400 µM | 2500 µM | > 2500 µM | 1440 µM | > 2500 µM | 1560 µM | 2480 µM | – | – | – | – | 21 µM | – | – | – | –
COc1cccc(Nc2nc(-c3cccs3)nc3ccc(Br)cc23)c1 | > 100 µM | > 100 µM | > 100 µM | > 100 µM | > 100 µM | > 100 µM | > 100 µM | > 100 µM | > 100 µM | > 100 µM | > 100 µM | – | – | – | – | – | – | – | – | –
COc1ccccc1N1C(Cl)C(=O)C1c1c[nH]c2ccccc12 (stereo not drawn) | – | > 100 µM | > 100 µM | – | – | > 100 µM | – | > 100 µM | > 100 µM | > 100 µM | – | – | – | – | – | – | – | – | – | –
O=C(O)C(O)Cc1ccccn1 (stereo not drawn) | > 100 µM | > 100 µM | > 100 µM | > 100 µM | > 100 µM | > 100 µM | > 100 µM | – | > 100 µM | > 100 µM | > 100 µM | – | – | – | – | – | – | – | – | –
N=C(N)C(N=Nc1ccccc1)C(N)=O (stereo not drawn) | > 100 µM | – | > 100 µM | > 100 µM | > 100 µM | > 100 µM | > 100 µM | – | > 100 µM | > 100 µM | > 100 µM | – | – | – | – | – | – | – | – | –
